Target: GST-tagged truncated human mutant G2019S LRRK2 (Homo sapiens (Human), UniProt Q5S007, G2019S)
Assay: LRRK2 G2019S Km ATP LanthaScreen assay
Format: biochemical
Details: G2019S LRRK2, 134 μM ATP (Km ATP), LRRKtide substrate
Protocol: Unless otherwise noted, all reactions are magnetically allowed to stir, diethyl ether used in the experiments described below is Fisher ACS certified material stabilized with BHT, and “concentrated” and/or “solvent removed under reduced pressure” means evaporating the solvent from a solution or mixture using a rotary evaporator or vacuum pump. Unless otherwise noted, flash chromatography is carried out on a Teledyne Isco (Lincoln, NE), Analogix (Burlington, WI), or Biotage (Stockholm, SWE) automated chromatography system using a commercially available cartridge as the column. Columns may be purchased from Teledyne Isco, Analogix, Biotage, Varian (Palo Alto, CA), or Supelco (Bellefonte, PA) and are usually filled with silica gel as the stationary phase. Reverse phase prep-HPLC conditions, where used, can be found at the end of each experimental section. Aqueous solutions were concentrated on a Genevac (Ipswich, ENG) or by freeze-drying/lyophilization. Unless otherwise noted, all LRRK2 pIC50 data presented in tables refers to the LRRK2 G2019S Km ATP LanthaScreen™ assay (Life Technologies Corp., Carlsbad, CA) that is described in the Biological Assay section.
The LRRK2 kinase activity reported herein as IC50 values was determined with LanthaScreen™ technology from Life Technologies Corporation (Carlsbad, CA) using GST-tagged truncated human mutant G2019S LRRK2 in the presence of the fluorescein-labeled peptide substrate LRRKtide, also from Life Technologies. The data presented for the […] depending on the specific conditions and reagents used. Assays were performed in the presence of 134 μM ATP (Km ATP). Upon completion, the assay was stopped and phosphorylated substrate detected with a terbium (Tb)-labeled anti-pERM antibody (cat. no. PV4898). The compound dose response was prepared by diluting a 10 mM stock of compound to a maximum concentration of 9.99 μM in 100% dimethylsulfoxide followed by custom fold serial dilution in dimethylsulfoxide nine times. Twenty nanoliters of each dilution was spotted via a Labcyte Echo onto a 384-well black-sided plate (Corning 3575) followed by 15 μl of a 1.25 nM enzyme solution in 1× assay buffer (50 mM Tris pH 8.5, 10 mM MgCl2, 0.01% Brij-35, 1 mM EGTA, 2 mM dithiothreitol, 0.05 mM sodium orthovanadate). Following a 15-minute incubation at room temperature, the kinase reaction was started with the addition of 5 μl of 400 nM fluorescein-labeled LRRKtide peptide substrate and 134 μM ATP solution in 1× assay buffer. The reaction was allowed to progress at ambient temperature for 90 minutes. The reaction was then stopped by the addition of 20 μl of TR-FRET Dilution Buffer (Life Technologies, Carlsbad, CA) containing 2 nM Tb-labeled anti-phospho LRRKtide antibody and 10 mM EDTA (Life Technologies, Carlsbad, CA). After an incubation of 1 h at room temperature, the plate was read on an EnVision multimode plate reader (Perkin Elmer, Waltham, MA) with an excitation wavelength of 337 nm (Laser) and a reading emission at both 520 and 495 nm. Compound IC50s were interpolated from nonlinear regression best fits of the log of the final compound concentration, plotted as a function of the 520/495-nm emission ratio using Activity base. Abase uses a 4 parameter (4P) logistic fit based on the Levenberg-Marquardt algorithm.

GST-tagged truncated human mutant G2019S LRRK2, sequence (Q5S007 970-2527 G2019S): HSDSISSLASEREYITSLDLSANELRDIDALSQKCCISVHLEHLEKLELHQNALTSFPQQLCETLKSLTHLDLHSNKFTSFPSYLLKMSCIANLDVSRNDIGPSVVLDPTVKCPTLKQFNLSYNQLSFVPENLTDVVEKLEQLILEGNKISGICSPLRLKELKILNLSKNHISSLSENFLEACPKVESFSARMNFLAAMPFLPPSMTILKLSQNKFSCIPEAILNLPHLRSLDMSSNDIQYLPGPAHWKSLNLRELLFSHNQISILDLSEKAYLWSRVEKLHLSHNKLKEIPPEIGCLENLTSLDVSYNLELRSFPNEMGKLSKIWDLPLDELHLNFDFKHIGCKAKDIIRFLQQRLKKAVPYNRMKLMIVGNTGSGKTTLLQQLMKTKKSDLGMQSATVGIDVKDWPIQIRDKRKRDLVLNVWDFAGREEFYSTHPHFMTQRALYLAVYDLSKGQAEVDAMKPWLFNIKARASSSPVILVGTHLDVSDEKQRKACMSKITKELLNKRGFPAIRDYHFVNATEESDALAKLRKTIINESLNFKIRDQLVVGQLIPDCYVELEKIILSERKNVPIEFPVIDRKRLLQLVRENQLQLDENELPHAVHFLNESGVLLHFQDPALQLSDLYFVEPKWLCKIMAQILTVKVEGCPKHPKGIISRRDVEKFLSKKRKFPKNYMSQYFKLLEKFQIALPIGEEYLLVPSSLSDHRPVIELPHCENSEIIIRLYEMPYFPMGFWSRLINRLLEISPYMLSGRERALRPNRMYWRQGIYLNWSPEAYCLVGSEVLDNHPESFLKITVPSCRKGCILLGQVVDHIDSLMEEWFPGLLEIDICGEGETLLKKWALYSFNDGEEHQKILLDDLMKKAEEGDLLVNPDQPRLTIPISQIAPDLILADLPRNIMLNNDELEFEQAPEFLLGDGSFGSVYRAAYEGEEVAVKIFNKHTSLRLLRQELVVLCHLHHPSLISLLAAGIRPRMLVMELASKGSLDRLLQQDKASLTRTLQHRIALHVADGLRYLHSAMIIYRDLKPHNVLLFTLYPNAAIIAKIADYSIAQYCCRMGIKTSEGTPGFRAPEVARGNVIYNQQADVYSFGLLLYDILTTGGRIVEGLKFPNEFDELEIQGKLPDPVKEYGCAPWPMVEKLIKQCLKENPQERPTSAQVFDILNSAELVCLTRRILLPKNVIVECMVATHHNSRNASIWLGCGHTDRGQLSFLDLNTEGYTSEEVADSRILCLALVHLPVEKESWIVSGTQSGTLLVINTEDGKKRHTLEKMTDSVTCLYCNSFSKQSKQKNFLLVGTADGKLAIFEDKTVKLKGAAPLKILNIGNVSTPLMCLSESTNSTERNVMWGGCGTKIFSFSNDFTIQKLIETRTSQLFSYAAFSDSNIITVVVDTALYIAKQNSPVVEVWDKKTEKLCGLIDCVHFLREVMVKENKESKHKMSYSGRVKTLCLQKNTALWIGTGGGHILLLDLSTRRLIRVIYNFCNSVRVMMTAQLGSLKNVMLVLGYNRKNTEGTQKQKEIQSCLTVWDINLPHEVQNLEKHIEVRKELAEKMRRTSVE

Compound: O[C@@H]1COCC1n1nc(C2CC2)c2c1OC[C@H]1CC[C@@H]1Nc1nc(ncc1C(F)(F)F)N2 (single isomer, unassigned) [Ex-6.4, (3R,4S)-4-((10aR,12aR)- or (3R,4S)-4-((10aS,12aS)- or (3S,4R)-4-((10aR,12aR)- or (3S,4R)-4-((10aR,12aR)-3-cyclopropyl-8-(trifluoromethyl)-10,10a,11,12,12a,13-hexahydro-5,9-(azeno)cyclobuta[k]pyrazolo[3,4-b][1]oxa[4,6,10]triazacyclotridecin-1 (4H)-yl)tetrahydrofuran-3-ol]
- LRRK2 pIC50: >10.09

Compound: Cc1nn(C2CCC2)c2c1OC1COC[C@H]1CNc1nc(ncc1C(F)(F)F)N2 (stereo partly drawn) [Ex-2.79, (11aR,14aR)-3-cyclobutyl-1-methyl-8-(trifluoromethyl)-3,4,10,11,11a,12,14,14a-octahydro-5,9-(azeno)furo[3,4-1]pyrazolo [4,3-b][1]oxa[4,6,10]triazacyclotridecine (11aS,14aS)-3-cyclobutyl-1-methyl-8-(trifluoromethyl)-3,4,10,11,11a,12,14,14a-octahydro-5,9-(azeno)furo[3,4-1]pyrazolo[4,3-b][1]oxa[4,6,10]triazacyclotridecine]
- LRRK2 pIC50: 6.87

Compound: Cc1nn(C2CCOC2)c2c1OC[C@@H]1CC[C@H]1Nc1nc(ncc1C(F)(F)F)N2 (stereo partly drawn) [Ex-2.74, (10aR,12aR)-1-methyl-3-((S)- or (10aR,12aR)-1-methyl-3-((R)-tetrahydrofuran-3-yl)-8-(trifluoromethyl)-3,4,10,10a,11,12,12a,13-octahydro-5,9-(azeno)cyclobuta[k]pyrazolo[4,3-b][1]oxa[4,6,10]triazacyclotridecine]
- LRRK2 pIC50: >10.09

Compound: Cn1cc(C2CC2c2nn(C3CCC3)c3c2OC[C@@H]2COC[C@H]2Nc2nc(ncc2C(F)(F)F)N3)cn1 (stereo partly drawn) [Ex-2.69, (10aS,13aS)-3-cyclobutyl-1-((1S,2S)- or (10aS,13aS)-3-cyclobutyl-1-((1R,2R)-2-(1-methyl-1H-pyrazol-4-yl)cyclopropyl)-8-(trifluoromethyl)-3,4,10a,11,13a,14-hexahydro-10H,13H-5,9-(azeno)furo[3,4-k]pyrazolo[4,3-b][1]oxa[4,6,10]triazacyclotridecine]
- LRRK2 pIC50: >10.09

Compound: Cc1nn(C2CCC2)c2c1CC[C@@H]1COC[C@H]1Nc1nc(ncc1C(F)(F)F)N2 (single isomer, unassigned) [Ex-12.1, (10aS,13aS)- or (10aR,13aR)-3-Cyclobutyl-1-methyl-8-(trifluoromethyl)-3,4,10a,11,13,13a,14,15-octahydro-10H-5,9-(azeno)furo[3,4-h]pyrazolo[4,3-l][1,3,7]triazacyclotridecine]
- LRRK2 pIC50: >10.09

Compound: Cn1nc(C(F)(F)F)c2c1OC[C@@H]1COC[C@H]1Nc1nc(ncc1Cl)N2 [Ex-1.13, (10aS,13aS)-8-chloro-1-methyl-3-(trifluoromethyl)-1,4,10a,11,13a,14-hexahydro-10H,13H-5,9-(azeno)furo[3,4-k]pyrazolo[3,4-b][1]oxa[4,6,10]triazacyclotridecine]
- LRRK2 pIC50: 7.99

Compound: COC1CCC1n1nc(C)c2c1Nc1ncc(C(F)(F)F)c(n1)NC1COCC1CO2 [Ex-2.38, (10aS,13aS)-3-((1R,2R)-(10aS,13aS)-3-((1S,2R)-(10aS,13aS)-3-((1R,2S)-(10aS,13aS)-3-((1R,2R)-(10aR,13aR)-3-((1S,2R)-(10aR,13aR)-3-((1R,2S)-2-methoxycyclobutyl)-1-methyl-8-(trifluoromethyl)-3,4,10a,11,13a,14-hexahydro-10H,13H-5,9-(azeno)furo[3,4-k]pyrazolo[4,3-b][1]oxa[4,6,10]triazacyclotridecine]
- LRRK2 pIC50: 6.13

Compound: Cc1nn(C2CCC2)c2c1OC1COC[C@H]1CNc1nc(ncc1C(F)(F)F)N2 (single isomer, unassigned) [Ex-2.82, (11aR,14aS) or (11aS,14aR)-3-cyclobutyl-1-methyl-8-(trifluoromethyl)-3,4,10,11,11a,12,14,14a-octahydro-5,9-(azeno)furo[3,4-1]pyrazolo[4,3-b][1]oxa[4,6,10]triazacyclotridecine]
- LRRK2 pIC50: 9.60

Compound: Cc1nn(C(C)C)c2c1OC[C@@H]1COC[C@H]1Nc1nc(ncc1Cl)N2 [Ex-2.54, (10aS,13aS)-8-chloro-3-isopropyl-1-methyl-3,4,10a, 11,13a,14--hexahydro-10H,13H-5,9-(azeno)furo[3,4-k]pyrazolo[4,3-b][1]oxa[4,6,10]triazacyclotridecine]
- LRRK2 pIC50: 8.57

Compound: Cc1nn(C2CC2)c2c1OC[C@H]1CC[C@@H]1Oc1nc(ncc1C(F)(F)F)N2 [Ex-14.2, (10aR,13aS)- or (10aS,13aR)-3-Cyclopropyl-1-methyl-8-(trifluoromethyl)-3,4,10a,11,12a,13-hexahydro-12H-5,9-(azeno)cyclobuta[k]pyrazolo[4,3-b][1,10]dioxa[4,6]diazacyclotridecine]
- LRRK2 pIC50: 5.16

Compound: Cc1nn(C2CCC2)c2c1OC[C@H]1COC[C@@H]1Nc1cc(ncc1C(F)(F)F)N2 [Ex-13.2, (10aR,13aR)-3-cyclobutyl-1-methyl-8-(trifluoromethyl)-3,4,10a,11,13a,14-hexahydro-10H,13H-5,9-(metheno)furo[3,4-k]pyrazolo[4,3-b][1]oxa[4,6,10]triazacyclotridecine]
- LRRK2 pIC50: 7.01

Compound: Cc1nn(C)c2c1OCC1CC[C@H]1Nc1nc(ncc1C(F)(F)F)N2 (stereo partly drawn) [Ex-2.10, (10aR,12aR)- or (10aS,12aS)-1,3-dimethyl-8-(trifluoromethyl)-3,4,10,10a,11,12,12a,13-octahydro-5,9-(azeno)cyclobuta[k]pyrazolo[4,3-b][1]oxa[4,6,10]triazacyclotridecine]
- LRRK2 pIC50: >10.09

Compound: CC(C)(C#N)c1nn(C2CCC2)c2c1OC[C@@H]1COC[C@H]1Nc1nc(ncc1C(F)(F)F)N2 [Ex-2.48, 2-((10aS,13aS)-3-cyclobutyl-8-(trifluoromethyl)-3,4,10a,11,13a,14-hexahydro-10H,13H-5,9-(azeno)furo[3,4-k]pyrazolo[4,3-b][1]oxa[4,6,10]triazacyclotridecin-1-yl)-2-methylpropanenitrile]
- LRRK2 pIC50: >10.09

Compound: (10aR,12aR)-8-chloro-3-methyl-1- (trifluoromethyl)-3,4,10,10a,11,12,12a,13- octahydro-5,9- (azeno)cyclobuta[k]pyrazolo[4,3- b][1]oxa[4,6,10]triazacyclotridecine [Ex-2.76]
- LRRK2 pIC50: 9.47

Compound: CC(C)n1nc(CO)c2c1Nc1ncc(C(F)(F)F)c(n1)N[C@@H]1COC[C@H]1CO2 [Ex-6.7, ((10aS,13aS)-3-isopropyl-8-(trifluoromethyl)-3,4,10a,11,13a,14-hexahydro-10H,13H-5,9-(azeno)furo[3,4-k]pyrazolo[4,3-b][1]oxa[4,6,10]triazacyclotridecin-1-yl)methanol]
- LRRK2 pIC50: >10.09

Compound: Cc1nn(C(C)(C)C#N)c2c1Nc1ncc(C(F)(F)F)c(n1)N[C@@H]1CCC1CO2 (stereo partly drawn) [Ex-1.1, 2-Methyl-2-((10aR,12aR)-3-methyl-8-(trifluoromethyl)-10,10a,11,12,12a,13-hexahydro-5,9-(azeno)cyclobuta[k]pyrazolo[3,4-b][1]oxa[4,6,10]triazacyclotridecin-1 (4H)-yl)propanenitrile]
- LRRK2 pIC50: >10.09

Compound: FC(F)(F)c1cnc2nc1NC1CCC1COc1c(C3COC3)nn(C3CCC3)c1N2 [Ex-2.72, (10aR,12aR)- or (10aS,12aS)-3-cyclobutyl-1-(oxetan-3-yl)-8-(trifluoromethyl)-3,4,10,10a,11,12,12a,13-octahydro-5,9-(azeno)cyclobuta[k]pyrazolo[4,3-b][1]oxa[4,6,10]triazacyclotridecine]
- LRRK2 pIC50: >10.09

Compound: O[C@@H]1COCC1n1nc(C2CC2)c2c1OC[C@H]1CC[C@@H]1Nc1nc(ncc1C(F)(F)F)N2 (single isomer, unassigned) [Ex-6.2, (3R,4S)-4-((10aR,12aR)- or (3R,4S)-4-((10aS,12aS)- or (3S,4R)-4-((10aR,12aR)- or (3S,4R)-4-((10aR,12aR)-3-cyclopropyl-8-(trifluoromethyl)-10,10a,11,12,12a,13-hexahydro-5,9-(azeno)cyclobuta[k]pyrazolo[3,4-b][1]oxa[4,6,10]triazacyclotridecin-1 (4H)-yl)tetrahydrofuran-3-ol]
- LRRK2 pIC50: >10.09
